Experimental data published in patent publication US6737383B1, “Herbicidal oxadiazolidines” (priority 1999, dated 2004).

Tests used:
bedstraw = assay: Test B pre/postemergence bedstraw; assay type: in vivo, Galium aparine; conditions: Preemergence
In short: (§1)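 Response is a visual 0-to-10 score relative to untreated plants, where 0 means no effect and 10 means complete control, taken twelve to sixteen days after application. Treatments went onto soil at planting and onto foliage of 1- to 4-leaf plants, using a surfactant-containing non-phytotoxic solvent.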

blackgrass = assay: Test B pre/postemergence blackgrass; assay type: in vivo, Alopecurus myosuroides
In short: as §1

surinam grass = assay: Test B pre/postemergence surinam grass; assay type: in vivo, Brachiaria decumbens
In short: as §1

cocklebur = assay: Test B pre/postemergence cocklebur; assay type: in vivo, Xanthium strumarium
In short: as §1

corn = assay: Test B pre/postemergence corn; assay type: in vivo, Zea mays
In short: as §1

crabgrass = assay: Test B pre/postemergence crabgrass; assay type: in vivo, Digitaria sanguinalis
In short: as §1

giant foxtail = assay: Test B pre/postemergence giant foxtail; assay type: in vivo, Setaria faberii
In short: as §1

morningglory = assay: Test B pre/postemergence morningglory; assay type: in vivo, Ipomoea hederacea
In short: as §1

pigweed = assay: Test B pre/postemergence pigweed; assay type: in vivo, Amaranthus retroflexus
In short: as §1

rape = assay: Test B pre/postemergence rape; assay type: in vivo, Brassica napus
In short: as §1

soybean = assay: Test B pre/postemergence soybean; assay type: in vivo, Glycine max
In short: as §1

sugar beet = assay: Test B pre/postemergence sugar beet; assay type: in vivo, Beta vulgaris
In short: as §1

velvetleaf = assay: Test B pre/postemergence velvetleaf; assay type: in vivo, Abutilon theophrasti
In short: as §1

wheat = assay: Test B pre/postemergence wheat; assay type: in vivo, Triticum aestivum
In short: as §1

wild oat = assay: Test B pre/postemergence wild oat; assay type: in vivo, Avena fatua
In short: as §1

purple nutsedge = assay: Test B pre/postemergence purple nutsedge; assay type: in vivo, Cyperus rotundus
In short: as §1

rice = assay: Test B flood test rice; assay type: in vivo, Oryza sativa
In short: (§2)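 Read-out is a visual response score from 0 (no effect) to 10 (complete control), assigned by comparison with untreated controls. Treatment was applied at the 2-leaf stage, and plants stayed in the greenhouse for twelve to sixteen days before scoring.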

smallflower flatsedge = assay: Test B flood test smallflower flatsedge; assay type: in vivo, Cyperus difformis
In short: as §2

duck salad = assay: Test B flood test duck salad; assay type: in vivo, Heteranthera limosa
In short: as §2

bamyardgrass = assay: Test B flood test barnyardgrass; assay type: in vivo, Echinochloa crus-galli
In short: as §2

[1] = Preemergence, Rate 62 g/ha, scale of 0 to 10 where 0 is no effect and 10 is complete control
[2] = Preemergence, Rate 125 g/ha, scale of 0 to 10 where 0 is no effect and 10 is complete control
[3] = Preemergence, Rate 250 g/ha, scale 0 to 10 (0 no effect, 10 complete control)
[4] = Preemergence, Rate 500 g/ha, scale of 0 to 10 where 0 is no effect and 10 is complete control
[5] = Rate 62 g/ha, flood test species, Pre-emergence, visual evaluation after twelve to sixteen days
[6] = Rate 125 g/ha, under heading Pre-emergence, flood test species, visual evaluation after twelve to sixteen days
[7] = Rate 250 g/ha, Pre-emergence (flood test species), scale 0 to 10, 0 is no effect, 10 is complete control
[8] = Rate 500 g/ha, Pre-emergence section of Table B, 0 to 10 scale (0 no effect, 10 complete control)
[9] = Postemergence, Rate 62 g/ha, scale 0 to 10, 0 is no effect, 10 is complete control
[10] = Postemergence, Rate 125 g/ha, scale of 0 to 10 where 0 is no effect and 10 is complete control
[11] = Postemergence, Rate 500 g/ha, scale 0 (no effect) to 10 (complete control)
[12] = Preemergence, Rate 250 g/ha, scale 0 (no effect) to 10 (complete control)
[13] = Rate 62 g/ha, Preemergence, scale 0 to 10
[14] = Rate 250 g/ha, Postemergence, scale 0 to 10, 0 is no effect, 10 is complete control
[15] = Rate 500 g/ha, Preemergence, scale 0 to 10 (0 no effect, 10 complete control)
[16] = Rate 125 g/ha, Preemergence, scale 0 to 10 (0 no effect, 10 complete control)
[17] = Pre-emergence, Rate 62 g/ha, scale 0 to 10, 0 is no effect, 10 is complete control
[18] = Rate 125 g/ha, Pre-emergence section (flood test species), scale 0 to 10, 0 no effect, 10 complete control

CC(C)N(C(=O)n1oc(=O)n(C(C)C2CCC2)c1=O)c1ccc(F)cc1F (centres unmarked) [Compound 702]
Bedstraw plant response rating (bedstraw; Rate 62 g/ha, scale of 0 to 10 where 0 is no effect and 10 is complete control): 0
Plant response rating, Bedstraw (bedstraw; Rate 125 g/ha, scale of 0 to 10 where 0 is no effect and 10 is complete control): 0
Plant response rating, Bedstraw (bedstraw; Rate 250 g/ha, scale 0 to 10 (0 no effect, 10 complete control)): 0
Plant response rating, Bedstraw (bedstraw; Rate 500 g/ha, scale of 0 to 10 where 0 is no effect and 10 is complete control): 0
Blackgrass plant response rating (blackgrass; [1]): 2
Plant response rating, Blackgrass (blackgrass; [2]): 2
Plant response rating, Blackgrass (blackgrass; [3]): 9
Plant response rating, Blackgrass (blackgrass; [4]): 10
B. signalgrass plant response rating (surinam grass; [1]): 0
Plant response rating, B. signalgrass (surinam grass; [2]): 2
Plant response rating, B. signalgrass (surinam grass; [3]): 2
Plant response rating, B. signalgrass (surinam grass; [4]): 8
Cocklebur plant response rating (cocklebur; [1]): 0
Plant response rating, Cocklebur (cocklebur; [2]): 0
Plant response rating, Cocklebur (cocklebur; [3]): 0
Plant response rating, Cocklebur (cocklebur; [4]): 0
Corn plant response rating (corn; [1]): 0
Plant response rating, Corn (corn; [2]): 0
Plant response rating, Corn (corn; [3]): 0
Crabgrass plant response rating (crabgrass; [1]): 9
Plant response rating, Crabgrass (crabgrass; [2]): 10
Plant response rating, Crabgrass (crabgrass; [3]): 10
Giant foxtail plant response rating (giant foxtail; [1]): 10
Plant response rating, Giant foxtail (giant foxtail; [2]): 10
Morningglory plant response rating (morningglory; [1]): 0
Plant response rating, Morningglory (morningglory; [2]): 0
Redroot pigweed plant response rating (pigweed; [1]): 2
Plant response rating, Redroot pigweed (pigweed; [2]): 5
Rape plant response rating (rape; [1]): 0
Plant response rating, Rape (rape; [2]): 0
Soybean plant response rating (soybean; [1]): 0
Plant response rating, Soybean (soybean; [2]): 0
Sugarbeets plant response rating (sugar beet; [1]): 0
Plant response rating, Sugarbeets (sugar beet; [2]): 0
Velvetleaf plant response rating (velvetleaf; [1]): 0
Plant response rating, Velvetleaf (velvetleaf; [2]): 0
Wheat plant response rating (wheat; [1]): 0
Plant response rating, Wheat (wheat; [2]): 0
Plant response rating, Wild oats (wild oat; [2]): 0
Nutsedge plant response rating (purple nutsedge; [1]): 0
Plant response rating, Nutsedge (purple nutsedge; [2]): 0
Plant response rating, Rice (0 to 10 scale, 0 is no effect, 10 is complete control) (rice; [5]): 0
Rice plant response rating (0 to 10 scale, 0 is no effect, 10 is complete control) (rice; [6]): 0
Rice plant response rating (rice; [7]): 0
Rice plant response rating (rice; [8]): 0
Plant response rating, S. Flatsedge (0 to 10 scale, 0 is no effect, 10 is complete control) (smallflower flatsedge; [5]): 0
S. Flatsedge plant response rating (0 to 10 scale, 0 is no effect, 10 is complete control) (smallflower flatsedge; [6]): 0
S. Flatsedge plant response rating (smallflower flatsedge; [7]): 0
S. Flatsedge plant response rating (smallflower flatsedge; [8]): 0
Plant response rating, Ducksalad (0 to 10 scale, 0 is no effect, 10 is complete control) (duck salad; [5]): 0
Ducksalad plant response rating (0 to 10 scale, 0 is no effect, 10 is complete control) (duck salad; [6]): 0
Ducksalad plant response rating (duck salad; [7]): 0
Ducksalad plant response rating (duck salad; [8]): 0
Plant response rating, Barnyardgrass (0 to 10 scale, 0 is no effect, 10 is complete control) (bamyardgrass; [5]): 0
Barnyardgrass plant response rating (0 to 10 scale, 0 is no effect, 10 is complete control) (bamyardgrass; [6]): 0
Barnyardgrass plant response rating (bamyardgrass; [7]): 0
Barnyardgrass plant response rating (bamyardgrass; [8]): 0

CC(C)N(C(=O)n1oc(=O)n(CC2=NOCCO2)c1=O)c1ccc(F)cc1 [Compound 765]
Bedstraw plant response rating (bedstraw; Rate 250 g/ha, scale 0 (no effect) to 10 (complete control)): 2
Bedstraw plant response rating (bedstraw; Rate 62 g/ha, scale 0 to 10): 0
Bedstraw plant response rating (bedstraw; Rate 500 g/ha, scale 0 to 10 (0 no effect, 10 complete control)): 8
Plant response rating, Blackgrass (blackgrass; [9]): 3
Blackgrass plant response rating (blackgrass; [10]): 5
Blackgrass plant response rating (blackgrass; [11]): 7
Blackgrass plant response rating (blackgrass; [12]): 8
Blackgrass plant response rating (blackgrass; [13]): 7
Blackgrass plant response rating (blackgrass; [14]): 7
Blackgrass plant response rating (blackgrass; [15]): 9
Plant response rating, B. signalgrass (surinam grass; [9]): 3
B. signalgrass plant response rating (surinam grass; [10]): 7
B. signalgrass plant response rating (surinam grass; [1]): 5
B. signalgrass plant response rating (surinam grass; [12]): 7
B. signalgrass plant response rating (surinam grass; [14]): 7
B. signalgrass plant response rating (surinam grass; Rate 500 g/ha, Postemergence, scale 0 to 10, 0 is no effect, 10 is complete control): 8
B. signalgrass plant response rating (surinam grass; [15]): 7
Plant response rating, Cocklebur (cocklebur; [9]): 0
Cocklebur plant response rating (cocklebur; [10]): 0
Cocklebur plant response rating (cocklebur; [11]): 3
Cocklebur plant response rating (cocklebur; [12]): 0
Cocklebur plant response rating (cocklebur; [13]): 0
Cocklebur plant response rating (cocklebur; [16]): 0
Cocklebur plant response rating (cocklebur; [14]): 0
Cocklebur plant response rating (cocklebur; [15]): 0
Plant response rating, Corn (corn; [9]): 0
Corn plant response rating (corn; [10]): 0
Corn plant response rating (corn; [11]): 3
Corn plant response rating (corn; [12]): 0
Corn plant response rating (corn; [13]): 0
Corn plant response rating (corn; [16]): 0
Corn plant response rating (corn; [14]): 0
Corn plant response rating (corn; [15]): 2
Plant response rating, Crabgrass (crabgrass; [9]): 3
Crabgrass plant response rating (crabgrass; [10]): 5
Crabgrass plant response rating (crabgrass; [11]): 9
Crabgrass plant response rating (crabgrass; [12]): 10
Crabgrass plant response rating (crabgrass; [13]): 9
Crabgrass plant response rating (crabgrass; [16]): 10
Crabgrass plant response rating (crabgrass; [14]): 7
Crabgrass plant response rating (crabgrass; [15]): 10
Plant response rating, Giant foxtail (giant foxtail; [9]): 5
Giant foxtail plant response rating (giant foxtail; [10]): 8
Giant foxtail plant response rating (giant foxtail; [11]): 9
Giant foxtail plant response rating (giant foxtail; [12]): 10
Giant foxtail plant response rating (giant foxtail; [13]): 9
Giant foxtail plant response rating (giant foxtail; [16]): 10
Giant foxtail plant response rating (giant foxtail; [14]): 9
Giant foxtail plant response rating (giant foxtail; [15]): 10
Plant response rating, Morningglory (morningglory; [9]): 5
Morningglory plant response rating (morningglory; [10]): 6
Morningglory plant response rating (morningglory; [11]): 8
Morningglory plant response rating (morningglory; [13]): 0
Morningglory plant response rating (morningglory; [16]): 0
Morningglory plant response rating (morningglory; [14]): 6
Morningglory plant response rating (morningglory; [15]): 0
Plant response rating, Redroot pigweed (pigweed; [9]): 6
Redroot pigweed plant response rating (pigweed; [10]): 7
Redroot pigweed plant response rating (pigweed; [11]): 8
Redroot pigweed plant response rating (pigweed; [13]): 8
Redroot pigweed plant response rating (pigweed; [15]): 10
Plant response rating, Rape (rape; [9]): 0
Rape plant response rating (rape; [10]): 0
Rape plant response rating (rape; [11]): 1
Rape plant response rating (rape; [13]): 2
Rape plant response rating (rape; [14]): 0
Rape plant response rating (rape; [15]): 8
Plant response rating, Soybean (soybean; [9]): 2
Soybean plant response rating (soybean; [11]): 5
Soybean plant response rating (soybean; [13]): 0
Soybean plant response rating (soybean; [16]): 0
Soybean plant response rating (soybean; [14]): 5
Soybean plant response rating (soybean; [15]): 0
Plant response rating, Sugarbeets (sugar beet; [9]): 0
Sugarbeets plant response rating (sugar beet; [11]): 4
Sugarbeets plant response rating (sugar beet; [13]): 6
Sugarbeets plant response rating (sugar beet; [14]): 0
Sugarbeets plant response rating (sugar beet; [15]): 9
Plant response rating, Velvetleaf (velvetleaf; [9]): 6
Velvetleaf plant response rating (velvetleaf; [11]): 7
Velvetleaf plant response rating (velvetleaf; [13]): 0
Velvetleaf plant response rating (velvetleaf; [16]): 4
Velvetleaf plant response rating (velvetleaf; [14]): 7
Velvetleaf plant response rating (velvetleaf; [15]): 7
Plant response rating, Wheat (wheat; [9]): 0
Wheat plant response rating (wheat; [11]): 5
Wheat plant response rating (wheat; [13]): 3
Wheat plant response rating (wheat; [14]): 3
Wheat plant response rating (wheat; [15]): 8
Plant response rating, Wild oats (wild oat; [9]): 0
Wild oats plant response rating (wild oat; [11]): 2
Wild oats plant response rating (wild oat; [13]): 4
Wild oats plant response rating (wild oat; [14]): 0
Wild oats plant response rating (wild oat; [15]): 9
Plant response rating, Nutsedge (purple nutsedge; [9]): 0
Nutsedge plant response rating (purple nutsedge; [10]): 0
Nutsedge plant response rating (purple nutsedge; [11]): 3
Nutsedge plant response rating (purple nutsedge; [13]): 0
Nutsedge plant response rating (purple nutsedge; [14]): 0
Nutsedge plant response rating (purple nutsedge; [15]): 0
Rice plant response rating (rice; [17]): 0
Rice plant response rating (rice; [18]): 0
Rice plant response rating (rice; [7]): 0
Rice plant response rating (rice; [8]): 0
S. Flatsedge plant response rating (smallflower flatsedge; [17]): 0
S. Flatsedge plant response rating (smallflower flatsedge; [18]): 0
S. Flatsedge plant response rating (smallflower flatsedge; [7]): 0
S. Flatsedge plant response rating (smallflower flatsedge; [8]): 0
Ducksalad plant response rating (duck salad; [17]): 0
Ducksalad plant response rating (duck salad; [18]): 0
Ducksalad plant response rating (duck salad; [7]): 0
Ducksalad plant response rating (duck salad; [8]): 0
Barnyardgrass plant response rating (bamyardgrass; [17]): 0
Barnyardgrass plant response rating (bamyardgrass; [18]): 0
Barnyardgrass plant response rating (bamyardgrass; [7]): 0
Barnyardgrass plant response rating (bamyardgrass; [8]): 0
